According to ChEMBL document CHEMBL1201862, “PubChem BioAssay data set” (2004):
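Compound exposure: 48 hours, 5 concentrations, 96-well plates. GI50 is the concentration that inhibits growth by half.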 Activity calls are given as the source filed them. No stated cut-off is given here; in the data, active = GI50 up to about 1.1 µM and inactive = higher. Non-standard residues stand in square brackets, D forms with d. Residues, ends and D or L forms follow the SMILES beside them. ξ: configuration not given here. *: point of attachment. NMeY = CN[C@@H](Cc1ccc(O)cc1)C(=O)O; Cbz = O=C(OCc1ccccc1)*; ξA = CC(N)C(=O)O

What was measured:
Test in all cases: NCI-60 cell line screen, 48 h
[1] = system: 786-0
[2] = system: A498
[3] = system: ACHN
[4] = system: CAKI-1
[5] = system: CCRF-CEM
[6] = system: HCT-15
[7] = system: HOP-62
[8] = system: HT-29
[9] = system: K562
[10] = system: LOX IMVI
[11] = system: MDA-N
[12] = system: MOLT-4
[13] = system: Malme-3M
[14] = system: NCI/ADR-RES
[15] = system: OVCAR-8
[16] = system: RXF 393
[17] = system: SF-295
[18] = system: SK-MEL-28
[19] = system: SK-MEL-2
[20] = system: SN12C

| SMILES | GI50 [1] | GI50 [2] | GI50 [3] | GI50 [4] | GI50 [5] | GI50 [6] [µM] | GI50 [7] | GI50 [8] | GI50 [9] | GI50 [10] | GI50 [11] | GI50 [12] | GI50 [13] | GI50 [14] | GI50 [15] | GI50 [16] | GI50 [17] | GI50 [18] | GI50 [19] | GI50 [20] |
| --- | --- | --- | --- | --- | --- | --- | --- | --- | --- | --- | --- | --- | --- | --- | --- | --- | --- | --- | --- | --- |
| N#Cc1c(-c2ccc(Cl)cc2)cc(-c2ccc(Nc3ccnc4cc(C(F)(F)F)ccc34)cc2)nc1N | 15 µM (inactive) | 19.6 µM (inactive) | 17.4 µM (inactive) | 57.7 µM (inactive) | 12.4 µM (inactive) | 17.9 | 19.7 µM (inactive) | 16.6 µM (inactive) | 14.5 µM (inactive) | 3.72 µM (inactive) | 32.8 µM (inactive) | 14.6 µM (inactive) | 63.2 µM (inactive) | > 100 µM (inactive) | > 100 µM (inactive) | 22.1 µM (inactive) | 19.3 µM (inactive) | 22.1 µM (inactive) | 27.8 µM (inactive) | 22 µM (inactive) |
| C=C(CN(CC)CC)C1(c2ccccc2)CC2(CCCC2)C(=O)O1 (stereo not given) | > 100 µM (inactive) | > 100 µM (inactive) | > 100 µM (inactive) | > 100 µM (inactive) | > 100 µM (inactive) | > 100 | > 100 µM (inactive) | 24.2 µM (inactive) | > 100 µM (inactive) | > 100 µM (inactive) | > 100 µM (inactive) | 53.1 µM (inactive) | > 100 µM (inactive) | 11.1 µM (inactive) | > 100 µM (inactive) | > 100 µM (inactive) | > 100 µM (inactive) | > 100 µM (inactive) | > 100 µM (inactive) | > 100 µM (inactive) |
| Cc1cn([C@H]2C[C@@H](N3C(=O)c4ccccc4C3=O)[C@@H](CO[Si](C)(C)C(C)(C)C)O2)c(=O)[nH]c1=O | 26.9 µM (inactive) | > 100 µM (inactive) | 62.7 µM (inactive) | 53.3 µM (inactive) | 36 µM (inactive) | > 100 | 20.7 µM (inactive) | 20.4 µM (inactive) | 52.5 µM (inactive) | > 100 µM (inactive) | > 100 µM (inactive) | 36.9 µM (inactive) | 87.3 µM (inactive) | 43.3 µM (inactive) | 32.5 µM (inactive) | 19.7 µM (inactive) | 37 µM (inactive) | > 100 µM (inactive) | 46.8 µM (inactive) | > 100 µM (inactive) |
| O=c1ssc2c1Nc1c(ssc1=O)S2 | 3.87 µM (inactive) | 11.9 µM (inactive) | 16.6 µM (inactive) | 17.9 µM (inactive) | 2.05 µM (inactive) | 11.4 | 18.5 µM (inactive) | 24.3 µM (inactive) | 8 µM (inactive) | 5.37 µM (inactive) | 16.1 µM (inactive) | 9.51 µM (inactive) | 5.9 µM (inactive) | 19.6 µM (inactive) | 14.8 µM (inactive) | 4.42 µM (inactive) | 27.7 µM (inactive) | 18.5 µM (inactive) | 16.1 µM (inactive) | 14.4 µM (inactive) |
| OCCCCCNc1cc(O)nc(O)n1 | > 100 µM (inactive) | > 100 µM (inactive) | > 100 µM (inactive) | > 100 µM (inactive) | > 100 µM (inactive) | > 100 | > 100 µM (inactive) | > 100 µM (inactive) | > 100 µM (inactive) | > 100 µM (inactive) | > 100 µM (inactive) | > 100 µM (inactive) | > 100 µM (inactive) | > 100 µM (inactive) | > 100 µM (inactive) | > 100 µM (inactive) | > 100 µM (inactive) | > 100 µM (inactive) | > 100 µM (inactive) | > 100 µM (inactive) |
| COc1ccc(C[C@@H](C(=O)NCC(N)=O)N(C)C(=O)[C@@H]2CCCN2C(=O)[C@H](CC(C)C)NC(=O)C(C)NC(=O)OCc2ccccc2)cc1 (stereo not given in full) (Cbz-[ξA]LP[NMeY](Me)G-NH2) | > 100 µM (inactive) | > 100 µM (inactive) | > 100 µM (inactive) | > 100 µM (inactive) | > 100 µM (inactive) | > 100 | > 100 µM (inactive) | > 100 µM (inactive) | > 100 µM (inactive) | > 100 µM (inactive) | > 100 µM (inactive) | > 100 µM (inactive) | > 100 µM (inactive) | > 100 µM (inactive) | > 100 µM (inactive) | > 100 µM (inactive) | > 100 µM (inactive) | > 100 µM (inactive) | > 100 µM (inactive) | > 100 µM (inactive) |
| CCCC(O)c1cn(C(NC(=O)c2ccccc2)P(=O)(OCC)OCC)nn1 (stereo not given) | > 100 µM (inactive) | > 100 µM (inactive) | > 100 µM (inactive) | > 100 µM (inactive) | > 100 µM (inactive) | > 100 | > 100 µM (inactive) | > 100 µM (inactive) | > 100 µM (inactive) | > 100 µM (inactive) | > 100 µM (inactive) | > 100 µM (inactive) | > 100 µM (inactive) | > 100 µM (inactive) | > 100 µM (inactive) | > 100 µM (inactive) | > 100 µM (inactive) | > 100 µM (inactive) | > 100 µM (inactive) | > 100 µM (inactive) |
| CCCCCCCCCCCCCCCCCCNc1ccn(C2OC(CO)C(OP(=O)(O)OCC(COP(=O)(O)OCC3OC(n4cc(F)c(NCCCCCCCCCCCCCCCCCC)nc4=O)CC3O)OC(=O)CCCCCCCCCCCCCCC)C2O)c(=O)n1 (stereo not given) | > 100 µM (inactive) | > 100 µM (inactive) | > 100 µM (inactive) | > 100 µM (inactive) | 95.3 µM (inactive) | > 100 | > 100 µM (inactive) | > 100 µM (inactive) | 3.01 µM (inactive) | > 100 µM (inactive) | > 100 µM (inactive) | > 100 µM (inactive) | > 100 µM (inactive) | > 100 µM (inactive) | > 100 µM (inactive) | > 100 µM (inactive) | > 100 µM (inactive) | > 100 µM (inactive) | > 100 µM (inactive) | > 100 µM (inactive) |
| CC1(C)N(OC2CCCCO2)C(c2ccccc2)C(c2ccccc2)=[N+]1[O-] (stereo not given) | > 100 µM (inactive) | > 100 µM (inactive) | > 100 µM (inactive) | > 100 µM (inactive) | 60.5 µM (inactive) | > 100 | > 100 µM (inactive) | > 100 µM (inactive) | 58.9 µM (inactive) | > 100 µM (inactive) | > 100 µM (inactive) | 30 µM (inactive) | > 100 µM (inactive) | 49.2 µM (inactive) | 32.1 µM (inactive) | 47.5 µM (inactive) | 41 µM (inactive) | > 100 µM (inactive) | 51.1 µM (inactive) | > 100 µM (inactive) |
| COc1ccc(CNc2cc(=O)n(C)c(=O)[nH]2)cc1 | > 100 µM (inactive) | > 100 µM (inactive) | > 100 µM (inactive) | > 100 µM (inactive) | > 100 µM (inactive) | > 100 | > 100 µM (inactive) | > 100 µM (inactive) | > 100 µM (inactive) | > 100 µM (inactive) | > 100 µM (inactive) | > 100 µM (inactive) | > 100 µM (inactive) | > 100 µM (inactive) | > 100 µM (inactive) | 35.6 µM (inactive) | > 100 µM (inactive) | > 100 µM (inactive) | > 100 µM (inactive) | > 100 µM (inactive) |
| CC(=O)C(=Cc1ccc(C=C(C(C)=O)C(C)=O)cc1)C(C)=O | 2.17 µM (inactive) | 2.58 µM (inactive) | 1.76 µM (inactive) | 1.74 µM (inactive) | 0.193 µM (active) | 0.977 | 2.08 µM (inactive) | 1.2 µM (inactive) | 0.286 µM (active) | 0.57 µM (active) | 2.22 µM (inactive) | 0.244 µM (active) | 2.01 µM (inactive) | 2.28 µM (inactive) | 2.05 µM (inactive) | 1.9 µM (inactive) | 2.11 µM (inactive) | 1.71 µM (inactive) | 2.39 µM (inactive) | 1.63 µM (inactive) |
| C/C(CC(O)(C(F)(F)F)C(F)(F)F)=N\NC(N)=S | > 10 µM (inactive) | > 10 µM (inactive) | > 10 µM (inactive) | > 10 µM (inactive) | > 10 µM (inactive) | > 10 | > 10 µM (inactive) | > 10 µM (inactive) | > 10 µM (inactive) | > 10 µM (inactive) | > 10 µM (inactive) | > 10 µM (inactive) | > 10 µM (inactive) | > 10 µM (inactive) | > 10 µM (inactive) | > 10 µM (inactive) | > 10 µM (inactive) | > 10 µM (inactive) | > 10 µM (inactive) | > 10 µM (inactive) |
| CC(C)OC(=S)Nc1ccc(Cl)c(/C=N/OC(C)(C)C)c1 | 16.7 µM (inactive) | 12.6 µM (inactive) | 15.1 µM (inactive) | 15.1 µM (inactive) | 15.9 µM (inactive) | 16.6 | 19.5 µM (inactive) | 14.4 µM (inactive) | 20 µM (inactive) | 17.1 µM (inactive) | 22.9 µM (inactive) | 15.6 µM (inactive) | 16.7 µM (inactive) | 11.9 µM (inactive) | 12.3 µM (inactive) | 14.5 µM (inactive) | 13.5 µM (inactive) | 21.7 µM (inactive) | 18.5 µM (inactive) | 16.7 µM (inactive) |
| CC(C)(C)OC(=O)N1CC(CCl)c2ccc(O)cc21 (stereo not given) | 3.74 µM (inactive) | 2.06 µM (inactive) | 1.11 µM (active) | 2.97 µM (inactive) | 1.29 µM (inactive) | 2.59 | 3.29 µM (inactive) | 3.15 µM (inactive) | 2.87 µM (inactive) | 1.76 µM (inactive) | 1.86 µM (inactive) | 1.3 µM (inactive) | 1.64 µM (inactive) | 1.59 µM (inactive) | 3.59 µM (inactive) | 0.693 µM (active) | 3.65 µM (inactive) | 2.09 µM (inactive) | 1.7 µM (inactive) | 3.23 µM (inactive) |
